Here are results for 15 molecules from patent US20240293557A1, “PROTEOLYSIS TARGETING CHIMERAS AND METHODS OF USE THEREOF” (University of Maryland, Baltimore, priority 2021, published 2024).

“Also recorded” adds a separate entry of the source. Read-outs that look alike come from different tables or passages of the source.

The test system of assay [1] is MOLM14 cells. Kind of assay: alamarBlue cell viability assay of MOLM14 cells. It counts as cell-based. Particulars: Homo sapiens, MOLM-14. The procedure: In vitro evaluations. All 36 PROTACs are evaluated in the relevant kinase assays, and those with Ki values >10-fold weaker than the parent drug are not advanced further. […] Next, the IC50s of lead indirect MCL-1 PROTACs are determined by alamarBlue cell viability assays of four human AML cell lines.
Both MOLM14 and MV4;11 AML cell lines are relatively sensitive to VEN in vitro; harbor a FLT3-ITD mutation plus an MLL rearrangement, two relatively common poor-prognosis AML mutations (both cells lines also contain additional mutations); and are dependent on MCL-1 and BCL-2, and express relatively high levels of both. In addition, both MOLM14 and MV4;11 are sensitive to CDK9 inhibitors, PI3K/mTOR inhibitors and MEK inhibitors. […] Three repeats of each IC50 determination assay are performed for each compound against each of these four AML cell lines. Multiple compounds are tested against all four AML cell lines at once, using alamarBlue microplate assays previously described. Specifically, cell lines are treated with vehicle (negative control), PROTAC alone, parent (non-PROTAC) drug alone, VEN alone, the combination of parent drug+VEN, and the combination of PROTAC+VEN, each at multiple concentrations, and IC50s in the AML cell lines determined. […] Western blotting is conducted after treatment of cells with the active PROTACs to determine if dose-dependent reduction of MCL-1 and CDK9 or PI3K/mTOR or MEK proteins is observed.
Cell viability of MOLM14 cells was measured in presence of test compounds via alamarBlue assay. This is a colorimetric assay that uses resazurin, a reduction-oxidation indicator. After incubation, resazurin is added to the test wells. The reduced form of resazurin is resorufin, which is pink and highly fluorescent. This can be measured through absorbance or fluorescence and is proportional to the amount of living cells.

The target of assay [2] is CDK9 (Homo sapiens (Human), UniProt P50750). Kind of assay: CDK9 activity assay (Nanosyn microfluidics mobility shift platform). Type of assay: biochemical. The procedure:
CDK9 activity assays were performed by Nanosyn using a microfluidics mobility shift platform. In this assay, a fluorescently labeled substrate is incubated with the enzyme in the presence of test compounds. Samples are run through microfluidic chips, separating them based on differences in charge; this separates the more positive substrate from the more negative product. Enzyme activity is measured through comparison of the fluorescence from substrate and product peaks.

Assay [3] relates to MOLM14 MCL1 OE cloned cell lines. Kind of assay: 48 h alamarBlue cell viability assay of MOLM14 MCL1 OE cloned cell lines. Type of assay: cell-based, human. Particulars: MOLM14 MCL1 OE cloned cell lines vs control cell lines.
Excerpt: Method: OLM14 AML cell were lentivirally transduced to overexpress MCL1. […] MOLM14 AML cells were transduced with lentiviral expression vector (LV) pWCC43 backbone containing EF1a—driven GFP and Ubiquitin (Ub)-driven MCL1, or control empty LV without MCL1, or control LV containing Luc in place of MCL1, and then single-cell subcloned.
The test system of assay [4] is Luc-labelled MOLM14 AML cells. Kind of assay: Luc-labelled MOLM14 AML xenograft in NRG mice, venetoclax monotherapy or combinations. Type of assay: in vivo, mouse. Particulars: MOLM14 AML-bearing NRG mice; for AML burden (fold-change total body luminescence vs d0): two 5 d treatment cycles (d1-5, d21-25), imaging d7/d14/d21, vs vehicle. The procedure: Next, these two compounds are tested at their MTD(s) in a 5 d schedule that utilized to evaluate VEN-based combinations against a luciferase (Luc)-labelled MOLM14 human AML cell line xenograft model. NRG mice are infused with Luc-labelled MOLM14 AML cells on day -10. After Xenogen quantification of baseline total body luminescence on d0, mice are placed into experimental groups balanced for AML burden. Each experiment to evaluate the two selected indirect MCL-1 PROTACs in vivo involves 10 groups of 5 MOLM14 AML-bearing mice treated with: (1) vehicle, (2-3) lead PROTACs, (4-5) corresponding parent drugs, (6) VEN, (7-8) corresponding parent drugs+VEN and (9-10) lead PROTACs+VEN. […] and VEN are administered at the same molar concentration as the novel PROTACs; additional control groups are needed if the MTDs of the two PROTACs differ. MOLM14 AML-bearing NRG mice are dosed daily PO on dl-5 and d21-25, assessed for AML burden by Xenogen imaging on d7, d14, and d21, and monitored until clinical signs dictate need for euthanasia (projected average 10 weeks). Primary response endpoints are AML response quantitation (fold-change in AML burden on d7/14/21 vs d0 for each mouse) via imaging. Comparisons of quantitative imaging results are confirmed by Kaplan-Meier survival analyses. In addition, the two selected PROTACs are similarly tested against a Luc-labelled MV4;11 cell line xenograft model. […]
Thus, the proposed sample size (5 mice/group) is expected to provide sufficient power for statistical analyses (at p<0.05 level; α=0.05, β=0.1), which is estimated with the standard deviation of AML burden over time monitored and the expected drug efficacy differences. […] AML burden is quantified using log transformed ratio of luminescence at d7/14/21 vs d0 for each mouse (fold-change); groups are compared using the appropriate parametric (ANOVA; t-test, etc) or non-parametric alternative as necessary (Wilcoxon rank sum, Kruskal-Wallis). […]
Two of the parent drug candidates are synthesized but the syntheses are published and short. […] The indirect MCL-1 PROTAC candidates are evaluated in the kinase assays as they are synthesized. […] On d0, after Xenogen quantification of baseline total body luminescence (AML burden), groups of 5 AML-bearing mice were treated on days 1-5, per a previously established MTD POx5d schedule, with VEN (150 mg/kg/d POx5), as monotherapy or co-administered with SOR (30 mg/kg/d POx5), ART (50 mg/kg/d POx5), and/or ASP (2001U/kg IP single dose). […] On d7, d14 and d21, each mouse was Xenogen imaged for total body luminescence, fold-change AML burden from d0 was calculated for each mouse, and mean (+/−SD) fold-change for each experimental group plotted. […]

Setting [5] is: MOLM14, 48 hr, read-out: Cell Viability (MOLM14 IC50-nM) 48 hr.
[6] abbreviates: MOLM14, 72 hr, read-out: Cell Viability (MOLM14 IC50-nM) 72 hr.

Sequence of CDK9 (P50750 whole entry): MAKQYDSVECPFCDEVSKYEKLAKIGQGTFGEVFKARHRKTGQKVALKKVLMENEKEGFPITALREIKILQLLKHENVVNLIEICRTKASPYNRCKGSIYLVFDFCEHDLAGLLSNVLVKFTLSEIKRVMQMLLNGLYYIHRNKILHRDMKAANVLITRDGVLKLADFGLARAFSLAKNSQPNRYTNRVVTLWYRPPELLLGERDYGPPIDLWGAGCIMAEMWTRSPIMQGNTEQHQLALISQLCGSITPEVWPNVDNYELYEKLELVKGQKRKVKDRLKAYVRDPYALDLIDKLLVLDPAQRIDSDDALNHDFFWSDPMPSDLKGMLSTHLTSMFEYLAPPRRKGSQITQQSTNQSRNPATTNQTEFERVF
Sequence of CDK9 (O60563 whole entry partner): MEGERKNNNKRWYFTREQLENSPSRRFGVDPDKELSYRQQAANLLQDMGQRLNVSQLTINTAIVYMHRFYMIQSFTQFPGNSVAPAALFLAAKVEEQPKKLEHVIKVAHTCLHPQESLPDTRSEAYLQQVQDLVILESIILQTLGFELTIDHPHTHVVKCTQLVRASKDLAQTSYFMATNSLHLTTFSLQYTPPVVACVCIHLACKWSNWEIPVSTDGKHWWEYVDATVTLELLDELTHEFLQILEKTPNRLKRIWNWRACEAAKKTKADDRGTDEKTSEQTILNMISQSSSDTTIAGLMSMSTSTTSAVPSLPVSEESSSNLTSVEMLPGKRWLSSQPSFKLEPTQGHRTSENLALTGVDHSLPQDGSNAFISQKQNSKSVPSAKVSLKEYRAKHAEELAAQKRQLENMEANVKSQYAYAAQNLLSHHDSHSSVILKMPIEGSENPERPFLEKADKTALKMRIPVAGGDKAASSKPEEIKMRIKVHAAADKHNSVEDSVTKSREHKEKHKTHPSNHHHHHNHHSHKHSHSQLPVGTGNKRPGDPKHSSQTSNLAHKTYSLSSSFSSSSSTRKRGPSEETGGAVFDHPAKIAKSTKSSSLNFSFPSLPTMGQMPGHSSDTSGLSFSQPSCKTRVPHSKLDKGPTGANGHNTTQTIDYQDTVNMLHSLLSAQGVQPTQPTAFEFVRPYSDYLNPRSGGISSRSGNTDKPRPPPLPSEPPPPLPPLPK

Consider `CC(C)(C)OC(=O)CN1CCC(NC(=O)c2n[nH]cc2NC(=O)c2c(Cl)cccc2Cl)CC1` [AMC-3-086], for which the IC50 in assay [1] (setting [5]) was 1560 nM; in assay [1] (setting [6]), 1590 nM; in assay [2], 11 nM.
For the molecule `CC(C)(C)OC(=O)N1CCC(NC(=O)c2n[nH]cc2NC(=O)c2c(Cl)cccc2Cl)CC1` [AMC-3-095], the IC50 amounted to 1680 nM in assay [1] (setting [5]), 2010 nM in assay [1] (setting [6]) and 11.3 nM in assay [2].
`O=C(COc1cccc2c1C(=O)N(C1CCC(=O)NC1=O)C2=O)NCCNC(=O)CN1CCC(NC(=O)c2n[nH]cc2NC(=O)c2c(Cl)cccc2Cl)CC1` (centres unmarked) [AMC-3-097]: the IC50 in assay [2] was determined as 3.96 nM.
Take `O=C(NC1CCNCC1)c1n[nH]cc1NC(=O)c1c(Cl)cccc1Cl` [AMC-3-098, N-(4-Piperidinyl)-4-(2,6-dichlorobenzoylamino)-1H-pyrazole-3-carboxamide, reference compound]: the values for the IC50 in assay [1] (setting [5]) and in assay [1] (setting [6]) were 178 nM and 460 nM, respectively.
Regarding `O=C(COc1cccc2c1C(=O)N(C1CCC(=O)NC1=O)C2=O)NCCC(=O)N1CCC(NC(=O)c2n[nH]cc2NC(=O)c2c(Cl)cccc2Cl)CC1` (centres unmarked) [AMC-3-104], the IC50 in assay [2] was 2.82 nM.
On to `O=C1CCC(N2C(=O)c3cccc(OCC(=O)N4CCC(NC(=O)CN5CCC(NC(=O)c6n[nH]cc6NC(=O)c6c(Cl)cccc6Cl)CC5)CC4)c3C2=O)C(=O)N1` (centres unmarked) [AMC-3-106], for which the half-inhibitory concentration (IC50) in assay [1] (setting [5]) is 6070 nM; in assay [1] (setting [6]), 8170 nM; in assay [2] it was 3.04 nM.
The matching figures for `O=C(COc1cccc2c1C(=O)N(C1CCC(=O)NC1=O)C2=O)NCCOCCNC(=O)CN1CCC(NC(=O)c2n[nH]cc2NC(=O)c2c(Cl)cccc2Cl)CC1` (centres unmarked) [CG-3-066]: 1970 nM, 1690 nM and 3.32 nM.
Consider `O=C(COc1cccc2c1C(=O)N(C1CCC(=O)NC1=O)C2=O)NCCOCCOCCNC(=O)CN1CCC(NC(=O)c2n[nH]cc2NC(=O)c2c(Cl)cccc2Cl)CC1` (centres unmarked) [CG-3-067], for which the IC50 in assay [1] (setting [5]) worked out at 4320 nM; in assay [1] (setting [6]), 7150 nM; in assay [2] it was 3.89 nM.
As to `O=C(COc1cccc2c1C(=O)N(C1CCC(=O)NC1=O)C2=O)NCCCCCCC(=O)N1CCC(NC(=O)c2n[nH]cc2NC(=O)c2c(Cl)cccc2Cl)CC1` (centres unmarked) [CG-3-071], the IC50 is 1710 nM in assay [1] (setting [5]), 1910 nM in assay [1] (setting [6]) and 2.85 nM in assay [2].
With `Cc1c(-c2c(-c3ccc(F)o3)sc3ncnc(O[C@H](Cc4ccccc4OCc4ccnn4CC(F)(F)F)C(=O)O)c23)ccc(OCCN2CCN(C)CC2)c1Cl` [S63845], the “Sensitivity of MCL-1 overexpressing MOLM14 clones compared to control cell lines” value in assay [3] is given as “reduced sensitivity”.
Take `O=C1CCC(N2C(=O)c3cccc(OCC(=O)N4CCC(C(=O)N5CCC(NC(=O)c6n[nH]cc6NC(=O)c6c(Cl)cccc6Cl)CC5)CC4)c3C2=O)C(=O)N1` (centres unmarked) [SF-8-140]: the concentration for half-maximal inhibition (IC50) in assay [1] (setting [5]) stood at 3000 nM; in assay [1] (setting [6]) it was 1820 nM; in assay [2] it was 1.66 nM.
Take `O=C(CNC(=O)COc1cccc2c1C(=O)N(C1CCC(=O)NC1=O)C2=O)NCCCCCCC(=O)N1CCC(NC(=O)c2n[nH]cc2NC(=O)c2c(Cl)cccc2Cl)CC1` (centres unmarked) [SF-8-141]: in assay [2], the half-maximal inhibitory concentration (IC50) turned out to be 4.49 nM.
On to `CNC(=O)c1cc(Oc2ccc(NC(=O)Nc3ccc(Cl)c(C(F)(F)F)c3)cc2)ccn1` [SOR, Sorafenib], for which the “AML burden (fold-change total body luminescence vs d0)” value in assay [4] is “reduced AML burden only moderately; also recorded: significant difference in AML burden only at d7 and d14”.
In the case of `CC1(C)CCC(CN2CCN(c3ccc(C(=O)NS(=O)(=O)c4ccc(NCC5CCOCC5)c([N+](=O)[O-])c4)c(Oc4cnc5[nH]ccc5c4)c3)CC2)=C(c2ccc(Cl)cc2)C1` [VEN, venetoclax], the “Sensitivity of MCL-1 overexpressing MOLM14 clones compared to control cell lines” value in assay [3] is on record as “more resistant”. In addition, in assay [4], the “AML burden (fold-change total body luminescence vs d0)” value is on record as “no detectable effect; also recorded: minimal activity”. Also, the Kaplan-Meier survival result in assay [4] (two 5 d treatment cycles, survival to d84, vs vehicle or monotherapy) is recorded as “no detectable effect”.
For PEGylated L-asparaginase, the “AML burden (fold-change total body luminescence vs d0)” value in assay [4] is recorded as “minimal activity”.
